Measurements from patent publication US20160220500A1, “Targeting Intracellular Copper Ions for Inhibiting Angiogenesis Using Nanoparticles of Ternary Inorganic Metal Sulfide M1M2S4 (M1, independently, is Mg, Ca, Mn, Fe, or Zn; M2 = Mo or W) Compounds to Treat Metastatic Cancer” (KENT STATE UNIVERSITY, priority 2014, published 2016).

System: HuVEC cells
Experiment: VEGF-induced tube formation assay
Type: cell-based, human
Details: VEGF (50 ng/ml), sulforaphane 5 uM
Procedure: The tube formation assay is an in vitro a model of angiogenesis commonly used to measure the ability of endothelial cells to form “tubes” (i.e. three-dimensional structures that resemble vessel walls). Tube formation studies were conducted in a 96-well plate format using an in vitro angiogenesis assay kit from Trevigen Inc. (Trevigen, Gaithersburg, Md.). Prior to tube formation assay, Huvec cells were starved overnight in EGM-2 basal medium in the culture dish. […] The cells were harvested and counted, and a single cell suspension at 1×10^6 cells/ml was prepared. […] Tube formation was visualized using a fluorescence microscope (485 nm excitation/520 nm emission) at 200× total magnification. Numbers of branch points were counted for each of six randomly chosen fields, and then averaged for each condition. […] Statistical significance was determined using student t-test.
The tube formation was quantified and expressed as mean number of branching points per viewing field as shown in FIG. 5F for the high dose treatment using nanoparticles of ZnMoS4.
The Huvec cells were harvested, counted, and diluted in EBM-2 basal medium in the presence (Panels B-E) or absence (Panels A) of VEGF (50 ng/ml) and ZnMoS4 NPs at 50 ng/ml (Panel C) and 10 ng/ml (Panel D). […] F. Quantitative assessment of the tube formation was done by counting the average number of branch points per viewing field. […]

`C[S+]([O-])CCCCN=C=S` (stereo not shown) [sulforaphane] was tested, and the tube formation was “prevented tube formation”.
